Experimental data taken from patent publication US8557836B2 (priority 2008, dated 2013).

Biological target: full length Udorn AM2 protein (Influenza A virus, UniProt P0DOF5)
Assay: cell-based
Format: cell-based, influenza virus A/Udorn/72
Conditions: for inhibition of AM2 (in words): 100 μM; for remaining activity at 100 µM: pH 5.5, read-out: AM2 Remaining Activity After 100 μM inhibition

full length Udorn AM2 protein, sequence (P0DOF5 whole entry, looked up): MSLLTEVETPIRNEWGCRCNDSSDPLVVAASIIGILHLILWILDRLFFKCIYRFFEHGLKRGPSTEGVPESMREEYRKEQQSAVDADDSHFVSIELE

**Q.** With `c1c[nH]c(CN2CCC3(CCCCC3)CC2)n1` [Compound 8, 3-((1H-imidazol-2-yl)methyl)-3-azaspiro[5.5]undecane] as the compound, how does the “inhibition of AM2 (in words)” value read?
**A.** moderate inhibition

**Q.** What about the remaining activity at 100 µM of the same compound?
**A.** 49%

**Q.** With `CC1(C)CCNCC1` [Compound 19, 4,4-dimethylpiperidinium chloride] as the compound, how does the remaining activity at 100 µM read?
**A.** 75%

**Q.** Which remaining activity at 100 µM does the source give for `Cn1cc(CN2CCC3(CCCCC3)CC2)cn1` [Compound 4, 3-((1-methyl-1H-pyrazol-4-yl)methyl)-3-azaspiro[5,5]undecane] here?
**A.** 100%

**Q.** For `CCC1(C)CCNCC1` [Compound 20, 4-ethyl-4-methylpiperidinium chloride], which remaining activity at 100 µM is on record?
**A.** 87%

**Q.** Which results are given for `c1ncc(CN2CCC3(CCCCC3)CC2)[nH]1` [Compound 7, 3-((1H-imidazol-4-yl)methyl)-3-azaspiro[5.5]undecane]?
**A.** inhibition of AM2 (in words): moderate inhibition; remaining activity at 100 µM: 70%

**Q.** `Cc1cc(CN2CCC3(CCCCC3)CC2)no1` [Compound 5, 3-(3-azaspiro[5,5]undecan-3-ylmethyl)-5-methylisoxazole] was tested. Which remaining activity at 100 µM did it give?
**A.** 100%

**Q.** How did the remaining activity at 100 µM turn out when `C1CCC2(CC1)CCN(CC1CCCC1)CC2` [Compound 2, 3-(cyclopentylmethyl)-3-azaspiro[5,5]undecane] was run?
**A.** 100%

**Q.** How did the remaining activity at 100 µM turn out when `c1ccc(CN2CCC3(CCCCC3)CC2)nc1` [Compound 6, 3-(pyridin-2-ylmethyl)-3-azaspiro[5,5]undecane] was run?
**A.** 100%

**Q.** With `c1cc(CN2CCC3(CCCCC3)CC2)cs1` [Compound 3, 3-(thiophen-3-ylmethyl)-3-azaspiro[5,5]undecane] as the compound, how does the remaining activity at 100 µM read?
**A.** 90%

**Q.** Which remaining activity at 100 µM does the source give for `C1CCC2(CC1)CCN(CC1CC1)CC2` [Compound 1, 3-(cyclopropylmethyl)-3-azaspiro[5,5]undecane] here?
**A.** 100%

**Q.** For `C1CCC2(CC1)CCN(C1=NCCN1)CC2` [BL-1743, 3-(4,5-dihydro-1H-imidazol-2-yl)-3-azaspiro[5,5]undecane hydroiodide, reference compound], which remaining activity at 100 µM is on record?
**A.** 25%
